Species: Rattus norvegicus
Assay: DrugMatrix - Regimen: Daily Repeat
Format: toxicity, organism-based, Sprague-Dawley
Design: regimen Daily Repeat, gender Male, age 6-8 weeks
Conditions: in vivo, ip, 0.5 mg/kg, route intraperitoneal, dose level High, vehicle 100 % SALINE; for ALANINE AMINOTRANSFERASE / ALBUMIN / ALKALINE PHOSPHATASE / ASPARTATE AMINOTRANSFERASE / BLOOD UREA NITROGEN / CHLORIDE / CHOLESTEROL / CREATINE PHOSPHOKINASE / CREATININE / GLUCOSE / LACTATE DEHYDROGENASE / LIPASE / PHOSPHORUS / POTASSIUM / SODIUM / TOTAL BILIRUBIN / TOTAL PROTEIN / URIC ACID: tissue Plasma
[1] = 120 h, tissue Blood, time 5 day

## TRANSPLATIN
[1]
  ABSOLUTE BASOPHIL: 86 cells/µL
  ABSOLUTE EOSINOPHIL: 98 cells/µL
  ABSOLUTE LYMPHOCYTE: 10800 cells/µL
  ABSOLUTE MONOCYTE: 340 cells/µL
  ABSOLUTE SEGMENTED NEUTROPHIL: 1910 cells/µL
  BASOPHIL: 0.64%
  EOSINOPHIL: 0.74%
  ERYTHROCYTE COUNT: 7.41 x10E6/uL
  HEMATOCRIT: 45.48%
  HEMOGLOBIN: 14.92 G/DL
  LEUKOCYTE COUNT: 13.36 x10E3/uL
  LYMPHOCYTE: 80.42%
  MEAN CORPUSCULAR HEMOGLOBIN: 20.12 pg
  MEAN CORPUSCULAR HEMOGLOBIN CONCENTRATION: 32.8 G/DL
  MONOCYTE: 2.5%
  NEUTROPHIL: 14.94%
  PLATELET COUNT: 1349 x10E3/uL
120 h, time 5 day
  ALANINE AMINOTRANSFERASE: 30.2 u/L
  ALBUMIN: 3.6 G/DL
  ALKALINE PHOSPHATASE: 229 u/L
  ASPARTATE AMINOTRANSFERASE: 82.8 u/L
  BLOOD UREA NITROGEN: 15 mg/dL
  CHLORIDE: 110 MEQ/L
  CHOLESTEROL: 67.2 mg/dL
  CREATINE PHOSPHOKINASE: 368.2 u/L
  CREATININE: 0.52 mg/dL
  GLUCOSE: 119 mg/dL
  LACTATE DEHYDROGENASE: 67.6 u/L
  LIPASE: 22.4 u/L
  PHOSPHORUS: 9.94 mg/dL
  POTASSIUM: 6.16 MEQ/L
  SODIUM: 151.8 MEQ/L
  TOTAL BILIRUBIN: 0.2 mg/dL
  TOTAL PROTEIN: 6.2 G/DL
  URIC ACID: 0.98 mg/dL
[…], tissue Blood, time 14 day
  ABSOLUTE BASOPHIL: 68 cells/µL
  ABSOLUTE EOSINOPHIL: 76 cells/µL
  ABSOLUTE LYMPHOCYTE: 6430 cells/µL
  ABSOLUTE MONOCYTE: 260 cells/µL
  ABSOLUTE SEGMENTED NEUTROPHIL: 2460 cells/µL
  BASOPHIL: 0.74%
  EOSINOPHIL: 0.84%
  ERYTHROCYTE COUNT: 7.71 x10E6/uL
  HEMATOCRIT: 46.84%
  HEMOGLOBIN: 15.04 G/DL
  LEUKOCYTE COUNT: 9.33 x10E3/uL
  LYMPHOCYTE: 69.2%
  MEAN CORPUSCULAR HEMOGLOBIN: 19.52 pg
  MEAN CORPUSCULAR HEMOGLOBIN CONCENTRATION: 32.1 G/DL
  MONOCYTE: 2.7%
  NEUTROPHIL: 26.14%
  PLATELET COUNT: 1318.6 x10E3/uL
[…], tissue Blood, time 28 day
  ABSOLUTE BASOPHIL: 120 cells/µL
  ABSOLUTE EOSINOPHIL: 130 cells/µL
  ABSOLUTE LYMPHOCYTE: 9640 cells/µL
  ABSOLUTE MONOCYTE: 190 cells/µL
  ABSOLUTE SEGMENTED NEUTROPHIL: 1790 cells/µL
  BASOPHIL: 1.07%
  EOSINOPHIL: 1.08%
  ERYTHROCYTE COUNT: 8.68 x10E6/uL
  HEMATOCRIT: 49.56%
  LEUKOCYTE COUNT: 11.93 x10E3/uL
  LYMPHOCYTE: 80.6%
  MEAN CORPUSCULAR HEMOGLOBIN: 18.81 pg
  MEAN CORPUSCULAR HEMOGLOBIN CONCENTRATION: 32.89 G/DL
  MEAN CORPUSCULAR VOLUME: 57.13 fL
  MONOCYTE: 1.64%
  NEUTROPHIL: 15.11%
  PLATELET COUNT: 1319.89 x10E3/uL
[…], time 14 day
  ALANINE AMINOTRANSFERASE: 24.6 u/L
  ALBUMIN: 3.5 G/DL
  ALKALINE PHOSPHATASE: 202 u/L
  ASPARTATE AMINOTRANSFERASE: 78.6 u/L
  BLOOD UREA NITROGEN: 12.6 mg/dL
  CHOLESTEROL: 52.8 mg/dL
  CREATINE PHOSPHOKINASE: 180.2 u/L
  CREATININE: 0.58 mg/dL
  GLUCOSE: 120.4 mg/dL
  LACTATE DEHYDROGENASE: 80.8 u/L
  LIPASE: 54.4 u/L
  POTASSIUM: 5.82 MEQ/L
  SODIUM: 150.8 MEQ/L
  TOTAL BILIRUBIN: 0.3 mg/dL
  TOTAL PROTEIN: 6.48 G/DL
  URIC ACID: 0.98 mg/dL
[…], time 28 day
  ALANINE AMINOTRANSFERASE: 35.44 u/L
  ALBUMIN: 3.69 G/DL
  ALKALINE PHOSPHATASE: 151 u/L
  ASPARTATE AMINOTRANSFERASE: 83 u/L
  BLOOD UREA NITROGEN: 14 mg/dL
  CHLORIDE: 108.89 MEQ/L
  CHOLESTEROL: 61.44 mg/dL
  CREATINE PHOSPHOKINASE: 144.22 u/L
  CREATININE: 0.58 mg/dL
  GLUCOSE: 132.22 mg/dL
  LACTATE DEHYDROGENASE: 67.22 u/L
  LIPASE: 45.22 u/L
  PHOSPHORUS: 9.38 mg/dL
  SODIUM: 151.78 MEQ/L
  TOTAL BILIRUBIN: 0.2 mg/dL
  TOTAL PROTEIN: 6.82 G/DL
  URIC ACID: 1.21 mg/dL

From ChEMBL document CHEMBL3885881, “DrugMatrix”
